Experimental data: patent US9018175B2 (Takeda GmbH, priority 2009, dated 2015)

Experiments:
PDE4B1 = molecular target: T1, PDE4B1 (Homo sapiens, UniProt Q07343); assay: Inhibition of PDE4B1 activity (SPA, [3H]cAMP); format: biochemical; conditions: recombinant PDE4B1 expressed in SF21 cells; 0.5 pM [sic] cAMP; values given as bins; read-out: PDE4B1 inhibitory values measured as −logIC50 (converted)
T1 construct: made in house; host or cells: SF21 insect cells (baculovirus; pCR-Bac vector)
Summary of the method: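 Recombinant human PDE4B1 (Sf21 cell 1000 g supernatant) in 20 mM Tris pH 7.4, 0.1 mg/ml BSA, 5 mM Mg2+, […] with [3H]cAMP tracer, enzyme giving 10-20% conversion. After 5 min preincubation at 37 °C, 15 min reaction, stopped by SPA beads with IBMX; IC50 by non-linear regression.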

human PDE5 = molecular target: T2, human PDE5 (Homo sapiens, UniProt O76074); assay: Inhibition of PDE5 activity (SPA, [3H]cGMP, platelet lysate); format: biochemical; conditions: PDE5 from human platelet lysate; values given as bins; read-out: PDE5A inhibitory values measured as −logIC50 (converted)
T2 construct: from tissue; host or cells: human platelets from fresh donor blood (10,000 g supernatant of sonicated platelets)
Summary of the method: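 Human platelet lysate served as PDE5 source, with 1 μM motapizone and 10 nM PDE2 inhibitor present; […] plus [3H]cGMP tracer, pH 7.4, 5 mM Mg2+, 10-20% substrate turnover. After 5 min preincubation, 15 min at 37 °C, stopped with SPA beads and IBMX; IC50 by non-linear regression.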

T1 sequence (Q07343 whole entry): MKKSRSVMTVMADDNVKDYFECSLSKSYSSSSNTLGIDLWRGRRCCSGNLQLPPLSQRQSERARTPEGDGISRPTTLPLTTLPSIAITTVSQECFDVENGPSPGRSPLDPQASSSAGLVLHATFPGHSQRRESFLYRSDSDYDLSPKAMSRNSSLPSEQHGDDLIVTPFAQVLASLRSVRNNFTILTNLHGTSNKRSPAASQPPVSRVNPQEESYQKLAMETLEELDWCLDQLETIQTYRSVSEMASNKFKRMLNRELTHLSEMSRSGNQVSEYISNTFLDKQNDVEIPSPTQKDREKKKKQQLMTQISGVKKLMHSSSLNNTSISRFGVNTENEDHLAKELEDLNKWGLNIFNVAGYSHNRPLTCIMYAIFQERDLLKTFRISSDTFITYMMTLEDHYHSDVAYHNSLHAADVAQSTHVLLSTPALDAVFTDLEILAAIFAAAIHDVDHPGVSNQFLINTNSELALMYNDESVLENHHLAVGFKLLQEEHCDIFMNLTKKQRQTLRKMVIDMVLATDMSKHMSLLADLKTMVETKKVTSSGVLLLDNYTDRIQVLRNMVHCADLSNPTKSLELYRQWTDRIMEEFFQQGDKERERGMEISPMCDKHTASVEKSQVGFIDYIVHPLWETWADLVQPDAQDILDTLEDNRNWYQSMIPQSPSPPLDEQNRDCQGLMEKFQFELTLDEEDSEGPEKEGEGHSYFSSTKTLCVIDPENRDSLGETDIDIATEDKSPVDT

| IC50 (PDE4B1) [nM] | IC50 (human PDE5) [nM] | SMILES |
| --- | --- | --- |
| > 10 | < 10 | CCOc1cc2c(cc1OC)C(c1cccc(C(=O)N3CCC(n4c(=O)c5sc(-c6cc(OC)ccc6OC)cc5n(Cc5nnn(CC)n5)c4=O)CC3)c1)=N[C@@H]1CCSC[C@H]21 [Example 37, 6-(2,5-dimethoxyphenyl)-3-[1-({3-[(4aR,10bR)-9-ethoxy-8-methoxy-3,4,4a,10b-tetrahydro-1H-thiopyrano[4,3-c]isoquinolin-6-yl]phenyl}carbonyl)piperidin-4-yl]-1-[(2-ethyl-2H-tetrazol-5-yl)methyl]thieno[3,2-d]pyrimidine-2,4(1H,3H)-dione] |
| > 10 | 10 to 100 | CCOc1cc2c(cc1OC)C(c1cccc(C(=O)N3CCC(n4c(=O)c5sc(-c6ccc(F)cc6OC)cc5n(Cc5nnn(CC)n5)c4=O)CC3)c1)=N[C@@H]1CCSC[C@H]21 [Example 33, 3-[1-({3-[(4aR,10bR)-9-ethoxy-8-methoxy-3,4,4a,10b-tetrahydro-1H-thiopyrano[4,3-c]isoquinolin-6-yl]phenyl}carbonyl)piperidin-4-yl]-1-[(2-ethyl-2H-tetrazol-5-yl)methyl]-6-(4-fluoro-2-methoxyphenyl)thieno[3,2-d]pyrimidine-2,4(1H,3H)-dione] |
| 1 to 10 | 10 to 100 | CCOc1cc2c(cc1OC)C(c1ccc(C(=O)N3CCC(n4c(=O)c5sc(-c6ccccc6)cc5n(Cc5cnn(CC)n5)c4=O)CC3)cc1)=N[C@@H]1CCSC[C@H]21 [Example 21, 3-[1-({4-[(4aR,10bR)-9-ethoxy-8-methoxy-3,4,4a,10b-tetrahydro-1H-thiopyrano[4,3-c]isoquinolin-6-yl]phenyl}carbonyl)piperidin-4-yl]-1-[(2-ethyl-2H-1,2,3-triazol-4-yl)methyl]-6-phenylthieno[3,2-d]pyrimidine-2,4(1H,3H)-dione] |
| 1 to 10 | 10 to 100 | CCOc1cc2c(cc1OC)C(c1ccc(C(=O)N3CCC(n4c(=O)c5sc(-c6ccccc6)cc5n(Cc5cc(C)on5)c4=O)CC3)cc1)=N[C@@H]1CCSC[C@H]21 [Example 6, 3-[1-({4-[(4aR,10bR)-9-ethoxy-8-methoxy-3,4,4a,10b-tetrahydro-1H-thiopyrano[4,3-c]isoquinolin-6-yl]phenyl}carbonyl)piperidin-4-yl]-1-[(5-methylisoxazol-3-yl)methyl]-6-phenylthieno[3,2-d]pyrimidine-2,4(1H,3H)-dione] |
| 1 to 10 | > 100 | CCOc1cc2c(cc1OC)C(c1ccc(C(=O)N3CCC(n4c(=O)c5sc(-c6ccccc6)cc5n(Cc5ccn(CC)n5)c4=O)CC3)cc1)=N[C@@H]1CCSC[C@H]21 [Example 18, 3-[1-({4-[(4aR,10bR)-9-ethoxy-8-methoxy-3,4,4a,10b-tetrahydro-1H-thiopyrano[4,3-c]isoquinolin-6-yl]phenyl}carbonyl)piperidin-4-yl]-1-[(1-ethyl-1H-pyrazol-3-yl)methyl]-6-phenylthieno[3,2-d]pyrimidine-2,4(1H,3H)-dione] |
| 1 to 10 | > 100 | CCOc1cc2c(cc1OC)C(c1ccc(C(=O)N3CCC(n4c(=O)c5sc(-c6ccccc6)cc5n(Cc5cn(CC)nn5)c4=O)CC3)cc1)=N[C@@H]1CCSC[C@H]21 [Example 23, 3-[1-({4-[(4aR,10bR)-9-ethoxy-8-methoxy-3,4,4a,10b-tetrahydro-1H-thiopyrano[4,3-c]isoquinolin-6-yl]phenyl}carbonyl)piperidin-4-yl]-1-[(1-ethyl-1H-1,2,3-triazol-4-yl)methyl]-6-phenylthieno[3,2-d]pyrimidine-2,4(1H,3H)-dione] |
| > 10 | < 10 | CCOc1cc2c(cc1OC)C(c1ccc(C(=O)N3CCC(n4c(=O)c5sc(-c6cc(OC)ccc6OC)cc5n(Cc5nnn(CC)n5)c4=O)CC3)cc1)=N[C@@H]1CCSC[C@H]21 [Example 36, 6-(2,5-dimethoxyphenyl)-3-[1-({4-[(4aR,10bR)-9-ethoxy-8-methoxy-3,4,4a,10b-tetrahydro-1H-thiopyrano[4,3-c]isoquinolin-6-yl]phenyl}carbonyl)piperidin-4-yl]-1-[(2-ethyl-2H-tetrazol-5-yl)methyl]thieno[3,2-d]pyrimidine-2,4(1H,3H)-dione] |
| 1 to 10 | > 100 | CCOc1cc2c(cc1OC)C(c1ccc(C(=O)N3CCC(n4c(=O)c5sc(-c6ccccc6)cc5n(Cc5cnn(CC)c5)c4=O)CC3)cc1)=N[C@@H]1CCSC[C@H]21 [Example 17, 3-[1-({4-[(4aR,10bR)-9-ethoxy-8-methoxy-3,4,4a,10b-tetrahydro-1H-thiopyrano[4,3-c]isoquinolin-6-yl]phenyl}carbonyl)piperidin-4-yl]-1-[(1-ethyl-1H-pyrazol-4-yl)methyl]-6-phenylthieno[3,2-d]pyrimidine-2,4(1H,3H)-dione] |
| 1 to 10 | < 10 | CCOc1cc2c(cc1OC)C(c1ccc(C(=O)N3CCC(n4c(=O)c5sc(-c6ccc(F)cc6OC)cc5n(Cc5nc(COC)no5)c4=O)CC3)cc1)=N[C@@H]1CCSC[C@H]21 [Example 44, 3-[1-({4-[(4aR,10bR)-9-ethoxy-8-methoxy-3,4,4a,10b-tetrahydro-1H-thiopyrano[4,3-c]isoquinolin-6-yl]phenyl}carbonyl)piperidin-4-yl]-6-(4-fluoro-2-methoxyphenyl)-1-{[3-(methoxymethyl)-1,2,4-oxadiazol-5-yl]methyl}thieno[3,2-d]pyrimidine-2,4(1H,3H)-dione] |
| 1 to 10 | < 10 | CCOc1cc2c(cc1OC)C(c1ccc(C(=O)N3CCC(n4c(=O)c5sc(-c6ccc(F)c(F)c6)cc5n(Cc5nc(CC)no5)c4=O)CC3)cc1)=N[C@@H]1CCSC[C@H]21 [Example 49, 6-(3,4-difluorophenyl)-3-[1-({4-[(4aR,10bR)-9-ethoxy-8-methoxy-3,4,4a,10b-tetrahydro-1H-thiopyrano[4,3-c]isoquinolin-6-yl]phenyl}carbonyl)piperidin-4-yl]-1-[(3-ethyl-1,2,4-oxadiazol-5-yl)methyl]thieno[3,2-d]pyrimidine-2,4(1H,3H)-dione] |
| 1 to 10 | < 10 | CCOc1cc2c(cc1OC)C(c1cccc(C(=O)N3CCC(n4c(=O)c5sc(-c6ccccc6)cc5n(Cc5nc(CC)no5)c4=O)CC3)c1)=N[C@@H]1CCSC[C@H]21 [Example 27, 3-[1-({3-[(4aR,10bR)-9-ethoxy-8-methoxy-3,4,4a,10b-tetrahydro-1H-thiopyrano[4,3-c]isoquinolin-6-yl]phenyl}carbonyl)piperidin-4-yl]-1-[(3-ethyl-1,2,4-oxadiazol-5-yl)methyl]-6-phenylthieno[3,2-d]pyrimidine-2,4(1H,3H)-dione] |
| 1 to 10 | 10 to 100 | CCOc1cc2c(cc1OC)C(c1ccc(C(=O)N3CCC(n4c(=O)c5sc(-c6ccc(F)cc6OC)cc5n(Cc5nc(CC)no5)c4=O)CC3)cc1)=N[C@@H]1CCSC[C@H]21 [Example 43, 3-[1-({4-[(4aR,10bR)-9-ethoxy-8-methoxy-3,4,4a,10b-tetrahydro-1H-thiopyrano[4,3-c]isoquinolin-6-yl]phenyl}carbonyl)piperidin-4-yl]-1-[(3-ethyl-1,2,4-oxadiazol-5-yl)methyl]-6-(4-fluoro-2-methoxyphenyl)thieno[3,2-d]pyrimidine-2,4(1H,3H)-dione] |
| > 10 | < 10 | CCOc1cc2c(cc1OC)C(c1ccc(C(=O)N3CCC(n4c(=O)c5sc(-c6ccccc6)cc5n(Cc5nnn(CC)n5)c4=O)CC3)cc1)=N[C@@H]1CCS(=O)(=O)C[C@H]21 [Example 19, 3-[1-({4-[(4aR,10bR)-9-ethoxy-8-methoxy-2,2-dioxido-3,4,4a,10b-tetrahydro-1H-thiopyrano[4,3-c]isoquinolin-6-yl]phenyl}carbonyl)piperidin-4-yl]-1-[(2-ethyl-2H-tetrazol-5-yl)methyl]-6-phenylthieno[3,2-d]pyrimidine-2,4(1H,3H)-dione] |
| < 1 | > 100 | CCOc1cc2c(cc1OC)C(c1ccc(C(=O)N3CCC(n4c(=O)c5sc(-c6ccccc6)cc5n(Cc5ncn(C)n5)c4=O)CC3)cc1)=N[C@@H]1CCSC[C@H]21 [Example 52, 3-[1-({4-[(4aR,10bR)-9-ethoxy-8-methoxy-3,4,4a,10b-tetrahydro-1H-thiopyrano[4,3-c]isoquinolin-6-yl]phenyl}carbonyl)piperidin-4-yl]-1-[(1-methyl-1H-1,2,4-triazol-3-yl)methyl]-6-phenylthieno[3,2-d]pyrimidine-2,4(1H,3H)-dione] |
| > 10 | < 10 | CCn1nnc(Cn2c(=O)n(C3CCN(C(=O)c4ccc(C5=N[C@@H]6CCSC[C@@H]6c6cc(OC)c(OC)cc65)cc4)CC3)c(=O)c3sc(-c4ccccc4)cc32)n1 [Example 59, 3-[1-({4-[(4aR,10bR)-8,9-dimethoxy-3,4,4a,10b-tetrahydro-1H-thiopyrano[4,3-c]isoquinolin-6-yl]phenyl}carbonyl)piperidin-4-yl]-1-[(2-ethyl-2H-tetrazol-5-yl)methyl]-6-phenylthieno[3,2-d]pyrimidine-2,4(1H,3H)-dione] |
| < 1 | < 10 | CCOc1cc2c(cc1OC)C(c1ccc(C(=O)N3CCC(n4c(=O)c5sc(-c6ccccc6)cc5n(Cc5nnnn5COC)c4=O)CC3)cc1)=N[C@@H]1CCSC[C@H]21 [Example 29, 3-[1-({4-[(4aR,10bR)-9-ethoxy-8-methoxy-3,4,4a,10b-tetrahydro-1H-thiopyrano[4,3-c]isoquinolin-6-yl]phenyl}carbonyl)piperidin-4-yl]-1-{[1-(methoxymethyl)-1H-tetrazol-5-yl]methyl}-6-phenylthieno[3,2-d]pyrimidine-2,4(1H,3H)-dione] |
